Results as given in PMC12018048, “Intranasal kisspeptin administration rapidly stimulates gonadotropin release in humans” (eBioMedicine, 2025).

Experiments:
serum LH = details: cited from earlier work
Method: This was the first study to examine the effects of intranasal kisspeptin administration on reproductive hormone secretion in humans. […] We have previously examined a single intravenous bolus of 6.4, 12.8, and 25.6 nmol/kg of kisspeptin-54 in healthy men.[59] In that study, peak LH levels occurred 4–6 h after intravenous kisspeptin administration with a maximal increase from baseline of 8–10 IU/L for the three doses tested.[59] In the current study, a far more rapid increase in serum LH was observed after intranasal kisspeptin for all four doses tested with peak LH stimulation (4.45 IU/L abo ...

[1] = parameters: method as in PMID 37467734; details: intravenous and subcutaneous routes, over 1000 healthy men and women and patients; cited from earlier work
plasma LH = experiment: Intranasal kisspeptin-54, plasma LH in adult C57BL/6J male mice; format: in vivo, mouse; details: for Peak plasma LH level / Integrated LH response, AUC: mean ± SEM; for Peak plasma LH level, mean difference vs placebo: two-way ANOVA; for Integrated LH response, AUC: sampling over 70 min
Method: Saline (placebo) or kisspeptin-54 were intranasally administered using a customised and unsharpened 2 mm long and 0.3 mm wide hypodermic needle (BD PrecisionGlide™; 30G; ref. 305106). Male mice were restrained and a single volume of 30 μL of the solution was delivered in one randomly chosen nostril with either 0.9% saline or different concentrations of kisspeptin-54 (1, 3, 12.8, 30, or 50 nM; equivalent to 0.001–0.05 nmol/kg). The protocol involved N = 5 mice per group, except concentrations 12.8 nM where N = 6 and 30 nM where N = 7. […] LH levels were assessed using a tail-tip serial blood sampling as previously reported.[64]^,[65] Briefly, samples containing 4 μL of whole blood were collected every 10 min over a 70-min-long period from each animal. The first sampling point was taken as baseline LH level (−5 min), and saline or kisspeptin-54 were administered at timepoint 0 min. Whole blood was collected into Eppendorf tubes pre-loaded with 50 μL of 0.1 M phosphate-buffered saline (PBS)-0.05% Tween, thoroughly mixed, and snap-frozen with dry ice and stored at −80 °C.
LH levels were measured using an established in-house and ultrasensitive mouse LH ELISA method as previously validated.[66] A primary coating antibody (bovine LHβ subunit, 518B7; L. Sibley; University of California, UC Davis, RRID AB_2756886) was used at a 1:1000 dilution in combination with a detection primary antibody (rabbit LH antiserum, AFP240580Rb, RRID AB_2665533; NIDDK- NHPP) used at 1:10,000 dilution, and a secondary horseradish peroxidase-conjugated antibody (goat anti-rabbit; Vector Laboratories, PI-1000, RRID AB_2336198) used at 1:10,000 dilution. The assay standard curve used a mouse LH-RP (AFP5306A, A. F. Parlow, National Hormone and Peptide Program; supplied by Golden West BioSolutions, California, USA; catalogue # TLIA1053.03). The assay sensitivity of this LH ELISA was 0.04 ng/mL, intra-assay coefficient of variation 4.1%, and inter-assay coefficient of variation 7.3%.
Statistical analyses were performed using GraphPad Prism (version 9.4.1). Data are presented as mean ± SEM. Normality of the data was determined using the Shapiro–Wilk test. The analysis considered increment in LH levels when average post-administration values were above significance (P < 0.05) compared to basal levels (−5 min) using repeated measures two-way ANOVA with Fishers least significant difference (LSD) test. Integrated LH response to kisspeptin-54 administration as indicated using the area under the curve (AUC) analysis when all peaks were above baseline values. The difference in AUC between groups was compared by one-way ANOVA with Fisher’s LSD test. In all cases, P < 0.05 was considered statistically significant.

[2] = Stability of kisspeptin-54 solutions for nasal delivery; format: physicochemical; details: for Reduction of the initial concentration: after 60 days, HPLC; for % of initial concentration: chemical stability, 3.5 mg/mL in 0.9% saline, HPLC-UV 220 nm, mean ± SEM, N = 3
Method: Kisspeptin-54 3.5 mg/mL solutions, equivalent to the lowest dose used in the human clinical study, were prepared and aliquoted into glass nasal spray devices and sealed amber glass vials (airtight, light protected control). The test materials were stored upright in a single location (4 °C refrigerator with temperature monitoring) with minimal manipulation or movement for 60 days. On each day of analysis, three aliquots were sampled from each container and analysed by HPLC.
Each kisspeptin-54 sample was assayed in triplicate using a Waters 2795 Separation Module HPLC equipped with Waters 2996 Photodiode Array Detector and a Luna® 3 μm C18 100 Å LC Column 150 × 4.6 mm with trimethylsilyl (TMS) end capping used. Injection volume was 25 μL and the mobile phase was a gradient using eluent A (0.05% trifluoroacetic acid (TFA):1% acetonitrile (ACN): 98.95% H20) and eluent B (0.05% TFA in MeOH/ACN 1:1(V/V)) from 20 to 60% eluent B with a flow rate of 1 mL/min and a run time of 15 min. Column temperature was set at 40 °C and ultraviolet (UV) detection at 220 nm. The assay was validated for linearity (r = 0.993), accuracy and precision in the range 0.3–0.7 mg/mL.

In the case of Kisspeptin-54, the “Maximal increase from baseline in LH” value (serum LH; healthy men, single intravenous bolus of 6.4, 12.8, and 25.6 nmol/kg) is given as 8–10 IU/L, the “Increase in serum LH, mean” value (serum LH; healthy volunteers, intravenous, standard deviation 0.4 IU/L) is given as 10.2 IU/L and the Adverse effects [1] is given as “without any observed adverse effects”. For the same substance, the “LH AUC, mean difference vs kisspeptin 1 nM” value (plasma LH; intranasal 3 nM vs 1 nM) was 3.6 ng·h/mL, the “Time of peak LH level after intranasal administration” value (shortened to “Time of peak LH level”) (plasma LH; intranasal 12.8 nM) was 25 min and the “LH AUC, mean difference vs kisspeptin 1 nM” value (plasma LH; intranasal 12.8 nM vs 1 nM) was 22.7 ng·h/mL. For the same substance, the “LH AUC, mean difference vs kisspeptin 3 nM” value (plasma LH; intranasal 12.8 nM vs 3 nM) was 19.1 ng·h/mL, the “LH AUC, mean difference vs placebo” value (plasma LH; intranasal 12.8 nM vs placebo) was 17.2 ng·h/mL and the “Peak plasma LH level” value (plasma LH; intranasal 12.8 nM, at 25 min, N = 6) was 1.9 ± 0.4 ng/mL. For the same substance, the “Peak plasma LH level, mean difference vs placebo” value (plasma LH; intranasal 12.8 nM, at 25 min) was 1.1 ng/mL, the “Time of peak LH level” value (plasma LH; intranasal 30 nM) was 25 min and the “LH AUC, mean difference vs kisspeptin 1 nM” value (plasma LH; intranasal 30 nM vs 1 nM) was 74.2 ng·h/mL. The “LH AUC, mean difference vs kisspeptin 3 nM” value (plasma LH; intranasal 30 nM vs 3 nM) was 70.7 ng·h/mL, the “LH AUC, mean difference vs kisspeptin 12.8 nM” value (plasma LH; intranasal 30 nM vs 12.8 nM) was 51.6 ng·h/mL and the “LH AUC, mean difference vs placebo” value (plasma LH; intranasal 30 nM vs placebo) was 68.7 ng·h/mL. The “Peak plasma LH level” value (plasma LH; intranasal 30 nM, at 25 min, N = 7) was 3.6 ± 0.4 ng/mL, the “Peak plasma LH level, mean difference vs placebo” value (plasma LH; intranasal 30 nM, at 25 min) was 2.8 ng/mL and the “Time of peak LH level” value (plasma LH; intranasal 50 nM) was 15 min. For the same substance, the “LH AUC, mean difference vs kisspeptin 1 nM” value (plasma LH; intranasal 50 nM vs 1 nM) was 92.8 ng·h/mL, the “LH AUC, mean difference vs kisspeptin 3 nM” value (plasma LH; intranasal 50 nM vs 3 nM) was 89.3 ng·h/mL and the “LH AUC, mean difference vs kisspeptin 12.8 nM” value (plasma LH; intranasal 50 nM vs 12.8 nM) was 70.2 ng·h/mL. For the same substance, the “LH AUC, mean difference vs kisspeptin 30 nM” value (plasma LH; intranasal 50 nM vs 30 nM) was 18.6 ng·h/mL, the “LH AUC, mean difference vs placebo” value (plasma LH; intranasal 50 nM vs placebo) was 87.3 ng·h/mL and the “Peak plasma LH level” value (plasma LH; intranasal 50 nM, at 15 min, N = 5) was 4.0 ± 1.0 ng/mL. The “Peak plasma LH level, mean difference vs placebo” value (plasma LH; intranasal 50 nM, at 15 min) was 2.9 ng/mL, the “Integrated LH response, AUC” value (plasma LH; intranasal 30 μL of 1 nM, N = 5) was 75.5 ± 6.3 ng·h/mL and the “Integrated LH response, AUC” value (plasma LH; intranasal 30 μL of 3 nM, N = 5) was 79.1 ± 5.8 ng·h/mL. For the same substance, the “Integrated LH response, AUC” value (plasma LH; intranasal 30 μL of 12.8 nM, N = 6) was 98.2 ± 15.5 ng·h/mL, the “Integrated LH response, AUC” value (plasma LH; intranasal 30 μL of 30 nM, N = 7) was 149.7 ± 13.3 ng·h/mL and the “Integrated LH response, AUC” value (plasma LH; intranasal 30 μL of 50 nM, N = 5) was 168.3 ± 38.5 ng·h/mL. For the same substance, the “Adverse effects leading to pain, distress, or illness” value (plasma LH; intranasal, first 72-h follow-up period) was “did not observe any adverse effects”, the “Time within pharmaceutically accepted limits for stability” value ([2]; 0.9% saline solution, 4 °C) was “up to 60 days” and the “Appearance of the solution (clear when freshly made)” value ([2]; 0.9% saline, 4 °C, 60 days of storage, either container type) was “no change was observed”. For the same substance, the “Reduction of the initial concentration” value ([2]; 0.9% saline, 4 °C, glass nasal spray devices) was 5.4%, the “Reduction of the initial concentration” value ([2]; 0.9% saline, 4 °C, sealed amber glass vials) was 5.0% and the “% of initial concentration” value ([2]; 4 °C in nasal spray, 4 days) was 98.06 ± 1.11%. For the same substance, the “% of initial concentration” value ([2]; 4 °C in nasal spray, 7 days) was 98.28 ± 0.69%, the “% of initial concentration” value ([2]; 4 °C in nasal spray, 14 days) was 97.90 ± 0.67% and the “% of initial concentration” value ([2]; 4 °C in nasal spray, 28 days) was 96.11 ± 0.51%. For the same substance, the “% of initial concentration” value ([2]; 4 °C in nasal spray, 60 days) was 94.56 ± 1.67%, the “% of initial concentration” value ([2]; 4 °C in sealed amber vial, 4 days) was 98.94 ± 0.57% and the “% of initial concentration” value ([2]; 4 °C in sealed amber vial, 7 days) was 98.69 ± 0.58%. For the same substance, the “% of initial concentration” value ([2]; 4 °C in sealed amber vial, 14 days) was 97.91 ± 0.64%, the “% of initial concentration” value ([2]; 4 °C in sealed amber vial, 28 days) was 97.32 ± 0.56% and the “% of initial concentration” value ([2]; 4 °C in sealed amber vial, 60 days) was 95.01 ± 1.45%.
